“And” between values parts separate entries of the source, which are not always exact repeats. Equal entries are not always repeated. Toxic doses and inconclusive results are not listed. No stated cut-off is given here; in the data, active means T/C of 150% or more; inactive means T/C below 125%.
System: L1210 leukemia ip in BDF1 mice, survival T/C
Assay: NCI In Vivo Anticancer Drug Screen. Data for tumor model L1210 Leukemia (intraperitoneal) in B6D2F1 (BDF1) mice
Details: endpoint: mean survival time, higher = longer survival
How it was run: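 In this screen, tumor-bearing mice given compound are compared to those given vehicle, and their survival values are reported as a treated-to-control quotient.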

[1] = dose: 100.0 mg/kg/injection, schedule: Q01DX009 (ip), vehicle: Klucel (hydroxypropylcellulose) (HPC)
[2] = dose: 100.0 mg/kg/injection, schedule: Q04DX003 (ip), vehicle: Klucel (hydroxypropylcellulose) (HPC)
[3] = dose: 200.0 mg/kg/injection, schedule: Q01DX009 (ip), vehicle: Klucel (hydroxypropylcellulose) (HPC)
[4] = dose: 200.0 mg/kg/injection, schedule: Q04DX003 (ip), vehicle: Klucel (hydroxypropylcellulose) (HPC)
[5] = dose: 400.0 mg/kg/injection, schedule: Q01DX009 (ip), vehicle: Klucel (hydroxypropylcellulose) (HPC)
[6] = dose: 400.0 mg/kg/injection, schedule: Q04DX003 (ip), vehicle: Klucel (hydroxypropylcellulose) (HPC)
[7] = dose: 50.0 mg/kg/injection, schedule: Q01DX001 (ip), vehicle: carboxymethylcellulose (CMC)
[8] = dose: 100.0 mg/kg/injection, schedule: Q01DX001 (ip), vehicle: carboxymethylcellulose (CMC)
[9] = dose: 50.0 mg/kg/injection, schedule: Q01DX009 (ip), vehicle: saline with Tween-80
[10] = dose: 100.0 mg/kg/injection, schedule: Q01DX009 (ip), vehicle: saline with Tween-80
[11] = dose: 100.0 mg/kg/injection, schedule: Q04DX003 (ip), vehicle: saline with Tween-80
[12] = dose: 200.0 mg/kg/injection, schedule: Q01DX009 (ip), vehicle: saline with Tween-80
[13] = dose: 200.0 mg/kg/injection, schedule: Q04DX003 (ip), vehicle: saline with Tween-80
[14] = dose: 25.0 mg/kg/injection, schedule: Q01DX009 (ip), vehicle: Klucel (hydroxypropylcellulose) (HPC)
[15] = dose: 50.0 mg/kg/injection, schedule: Q01DX009 (ip), vehicle: Klucel (hydroxypropylcellulose) (HPC)
[16] = dose: 400.0 mg/kg/injection, schedule: Q04DX003 (ip), vehicle: saline with Tween-80

Measured: T/C

CCOc1ccccc1NC(=O)Nc1ccc(Cl)cc1
inactive: [1] 97 % of control | [2] 100 % of control | [3] 103 % of control | [4] 96 % of control | [5] 101 % of control | [6] 100 % of control

Cc1ccccc1S(=O)(=O)NSc1ccccc1[N+](=O)[O-]
inactive: dose: 75.0 mg/kg/injection, schedule: Q01DX001 (ip), vehicle: other 101 % of control | dose: 150.0 mg/kg/injection, schedule: Q01DX001 (ip), vehicle: other 95 % of control | dose: 300.0 mg/kg/injection, schedule: Q01DX001 (ip), vehicle: other 95 % of control

CC(c1ccccc1)C(C(=O)O)C(=O)O (configuration not stated)
inactive: [7] 100 % of control | [8] 96 % of control | dose: 200.0 mg/kg/injection, schedule: Q01DX001 (ip), vehicle: carboxymethylcellulose (CMC) 96 % of control | dose: 400.0 mg/kg/injection, schedule: Q01DX001 (ip), vehicle: carboxymethylcellulose (CMC) 97 % of control

C#CCOCC(CCl)OC(N)=O (configuration not stated)
inactive: [9] 121 % of control | dose: 50.0 mg/kg/injection, schedule: Q04DX003 (ip), vehicle: saline with Tween-80 104 % of control | [10] 105 % of control | [11] 101 % of control | [12] 106 % of control | [13] 110 % of control

CC(=O)/C(C)=N/O
inactive: dose: 100.0 mg/kg/injection, schedule: Q01DX001 (ip), vehicle: saline 98 % of control | dose: 200.0 mg/kg/injection, schedule: Q01DX001 (ip), vehicle: saline 98 % of control | dose: 400.0 mg/kg/injection, schedule: Q01DX001 (ip), vehicle: saline 96 % of control

O=C(OCCCl)OCCCl
inactive: dose: 25.0 mg/kg/injection, schedule: Q01DX009 (ip), vehicle: saline with Tween-80 98 % of control | [9] 103 % of control and 91 % of control | [10] 93 % of control | [12] 92 % of control

O=C(Nc1ccc(-c2nc3nc[nH]c(=O)c3[nH]2)cc1)c1cccc(S(=O)(=O)F)c1
inactive: dose: 100.0 mg/kg/injection, schedule: Q01DX001 (ip), vehicle: saline with Tween-80 96 % of control | dose: 200.0 mg/kg/injection, schedule: Q01DX001 (ip), vehicle: saline with Tween-80 96 % of control | dose: 400.0 mg/kg/injection, schedule: Q01DX001 (ip), vehicle: saline with Tween-80 92 % of control

Nc1cccc2c1C(=O)c1cccc(NC(=O)c3ccccc3)c1C2=O
inactive: dose: 6.25 mg/kg/injection, schedule: Q01DX009 (ip), vehicle: Klucel (hydroxypropylcellulose) (HPC) 89 % of control | dose: 12.5 mg/kg/injection, schedule: Q01DX009 (ip), vehicle: Klucel (hydroxypropylcellulose) (HPC) 92 % of control | [14] 89 % of control | [15] 108 % of control | [1] 95 % of control | [2] 96 % of control | [3] 95 % of control | [4] 91 % of control | [5] 99 % of control | [6] 90 % of control

NNC(=O)c1ccc(Br)cc1
inactive: [14] 93 % of control | [15] 96 % of control | [1] 104 % of control | [2] 94 % of control | [4] 103 % of control | [6] 106 % of control

NC(N)=NNCCOc1c(Cl)cccc1Cl
inactive: dose: 25.0 mg/kg/injection, schedule: Q01DX001 (ip), vehicle: carboxymethylcellulose (CMC) 116 % of control | [7] 101 % of control | [8] 111 % of control

CC(=O)N(C)Nc1ccccc1
inactive: [10] 116 % of control | [11] 91 % of control | [12] 97 % of control | [13] 91 % of control | dose: 400.0 mg/kg/injection, schedule: Q01DX009 (ip), vehicle: saline with Tween-80 90 % of control | [16] 106 % of control

CN(C)S(=O)(=O)c1ccc2c(c1)N(CCCN1CCN(S(C)(=O)=O)CC1)c1ccccc1S2
inactive: dose: 25.0 mg/kg/injection, schedule: Q01DX009 (ip), vehicle: saline 95 % of control | dose: 50.0 mg/kg/injection, schedule: Q01DX009 (ip), vehicle: saline 101 % of control | dose: 100.0 mg/kg/injection, schedule: Q01DX009 (ip), vehicle: saline 91 % of control | dose: 200.0 mg/kg/injection, schedule: Q01DX009 (ip), vehicle: saline 98 % of control | dose: 400.0 mg/kg/injection, schedule: Q01DX009 (ip), vehicle: saline 106 % of control

CC(=O)OCC1OC(Oc2c(C)cc([N+](=O)[O-])cc2[N+](=O)[O-])C(OC(C)=O)C(OC(C)=O)C1OC(C)=O (configuration not stated)
inactive: [11] 94 % of control | [13] 100 % of control | [16] 100 % of control

CC(CCN=Cc1ccccc1O)N=Cc1ccccc1O (configuration not stated)
inactive: dose: 50.0 mg/kg/injection, schedule: Q01DX001 (ip), vehicle: other 107 % of control | dose: 100.0 mg/kg/injection, schedule: Q01DX001 (ip), vehicle: other 89 % of control | dose: 200.0 mg/kg/injection, schedule: Q01DX001 (ip), vehicle: other 97 % of control | dose: 400.0 mg/kg/injection, schedule: Q01DX001 (ip), vehicle: other 95 % of control

Nc1cccc(OCCCCOc2cccc(N)c2)c1
inactive: [9] 93 % of control | [10] 101 % of control | [12] 107 % of control

O=S(=O)(O)SCCCNCCCCCCCCNCCCSS(=O)(=O)O
inactive: [11] 101 % of control | [13] 92 % of control | [16] 88 % of control

Reference: PubChem BioAssay AID248 (DTP/NCI, 2004)
